In patent US7074190B2, “Non-invasive apparatus system for monitoring drug hepatoxicity and uses thereof” (priority 2002, dated 2006):

Test system: adult dogs
Assay: Artery blood pressure waveform analysis before and after taking the drug, dog experiment
Format: in vivo
[1] = Code A dog, 500 mg/kg oral, 12 hours after taking the drug
[2] = Code A dog, 500 mg/kg oral, before and after taking the drug (12 hours)
[3] = Code B dog, 1,200 mg/kg subcutaneous injection, 12 hours after taking the drug

Experimental: Two adult dogs weighing 12 and 15 kg were used. One (coded A) of them received 500 mg/kg of body weight of acetaminophen oral solution (dissolved in water); and the other one (coded B) received a higher concentration (1,200 mg/kg of body weight) of acetaminophen via subcutaneous injection. After Nembutal was injected and the respirator was put on, the hair on the front legs of the dogs was shaved and a blood pressure waveform sensor was inserted by operation. The waveform of artery blood pressure waveform on brachial position was continuously recorded and analyzed by a computer with a frequency of 100 data per minute. After surgery and before the drug was orally taken or injected, the blood pressure waveform of each dog was measured for two hours as the baseline. After the drug was orally taken or injected, the blood pressure waveform was continuously monitored for analyzing the hepatotoxicity induced by the drug, and blood samples were periodically taken from a tube inserted into the artery for determining the level of hepatotoxicuty.
The definition of parameter altered amount is: (the parameter value after taking the drug—the parameter value before taking the drug)/the parameter value before taking the drug *100%

## CC(=O)Nc1ccc(O)cc1 [acetaminophen]
[1]
  Oblique angle parameter D1 = (Bb-Aa)/ab: D1 = (Bb-Aa)/ab = 92 mmHg/sec.
  Oblique angle parameter D2 = (Bb-Cc)/bc: D2 = (Bb-Cc)/bc = 350 mmHg/sec.
  Oblique angle parameter D3 = (Dd-Cc)/cd: D3 = (Dd-Cc)/cd = 420 mmHg/sec.
  Oblique angle parameter D4 = (Dd-Ee)/de: D4 = (Dd-Ee)/de = 110 mmHg/sec.
  Oblique angle parameter D5 = D1 + D2: D5 = D1 + D2 = 1270 mmHg/sec.
  Oblique angle parameter D6 = D3 + D4: D6 = D3 + D4 = 530 mmHg/sec.
  Pressure parameter P1 = Aa: P1 = Aa = 149 mmHg
  Pressure parameter P2 = Bb: P2 = Bb = 195 mmHg
  Pressure parameter P3 = Cc: P3 = Cc = 156 mmHg
  Pressure parameter P4 = Dd: P4 = Dd = 173 mmHg
  Pressure parameter P5 = Ee: P5 = Ee = 149 mmHg
  Ratio parameter RA1 = A6/A5: RA1 = A6/A5 = 1.46
  Ratio parameter RA2 = A5/A7: RA2 = A5/A7 = 0.41
  Ratio parameter RA3 = A6/A7: RA3 = A6/A7 = 0.59
  Ratio parameter RP1 = Dd/Bb: RP1 = Dd/Bb = 0.89
  Ratio parameter RT1 = ab/ae: RT1 = ab/ae = 0.12
  Ratio parameter RT2 = ac/ae: RT2 = ac/ae = 0.40
  Ratio parameter RT3 = ad/ae: RT3 = ad/ae = 0.49
  Superficial measure parameter A1 = AabB: A1 = AabB = 9 sec. * mmHg
  Superficial measure parameter A2 = BbcC: A2 = BbcC = 19 sec. * mmHg
  Superficial measure parameter A3 = CcdD: A3 = CcdD = 7 sec. * mmHg
  Superficial measure parameter A4 = DdeE: A4 = DdeE = 34 sec. * mmHg
  Superficial measure parameter A5 = A1 + A2: A5 = A1 + A2 = 28 sec. * mmHg
  Superficial measure parameter A6 = A3 + A4: A6 = A3 + A4 = 41 sec. * mmHg
  Superficial measure parameter A7 = A5 + A6: A7 = A5 + A6 = 69 sec. * mmHg
  Time parameter T1 = ab: T1 = ab = 0.05 second
  Time parameter T2 = bc: T2 = bc = 0.11 second
  Time parameter T3 = cd: T3 = cd = 0.04 second
  Time parameter T4 = de: T4 = de = 0.21 second
  Time parameter T5 = ae: T5 = ae = 0.41 second
[2]
  Pressure parameter Altered amount P1 = Aa: P1 = Aa = 0.7 mmHg
  Pressure parameter Altered amount P2 = Bb: P2 = Bb = 1.0 mmHg
  Pressure parameter Altered amount P3 = Cc: P3 = Cc = 1.3 mmHg
  Pressure parameter Altered amount P4 = Dd: P4 = Dd = 2.4 mmHg
  Pressure parameter Altered amount P5 = Ee: P5 = Ee = 0.7 mmHg
  Ratio parameter Altered amount RA1 = A6/A5: RA1 = A6/A5 = 12.3
  Ratio parameter Altered amount RA2 = A5/A7: RA2 = A5/A7 = −6.8
  Ratio parameter Altered amount RA3 = A6/A7: RA3 = A6/A7 = 5.3
  Ratio parameter Altered amount RP1 = Dd/Bb: RP1 = Dd/Bb = 9.2
  Ratio parameter Altered amount RT1 = ab/ae: RT1 = ab/ae = −25.0
  Ratio parameter Altered amount RT2 = ac/ae: RT2 = ac/ae = −5.0
  Ratio parameter Altered amount RT3 = ad/ae: RT3 = ad/ae = −11.0
  Superficial measure parameter Altered amount A1 = AabB: Al = AabB = −10.0 sec. * mmHg
  Superficial measure parameter Altered amount A2 = BbcC: A2 = BbcC = 11.8 sec. * mmHg
  Superficial measure parameter Altered amount A3 = CcdD: A3 = CcdD = −12.5 sec. * mmHg
  Superficial measure parameter Altered amount A4 = DdeE: A4 = DdeE = 25.9 sec. * mmHg
  Superficial measure parameter Altered amount A5 = A1 + A2: A5 = A1 + A2 = 3.7 sec. * mmHg
  Superficial measure parameter Altered amount A6 = A3 + A4: A6 = A3 + A4 = 17.1 sec. * mmHg
  Superficial measure parameter Altered amount A7 = A5 + A6: A7 = A5 + A6 = 11.3 sec. * mmHg
  Time parameter Altered Amount T2 = bc: T2 = bc = 10.0 second
  Time parameter Altered Amount T3 = cd: T3 = cd = −20.0 second
  Time parameter Altered Amount T4 = de: T4 = de = 23.5 second
  Time parameter Altered Amount T5 = ae: T5 = ae = 7.9 second
  Time parameter Altered amount T1 = ab: T1 = ab = −16.7 second
  oblique angle parameter Altered amount D1 = (Bb-Aa)/ab: D1 = (Bb-Aa)/ab = 22.7 mmHg/sec.
  oblique angle parameter Altered amount D2 = (Bb-Cc)/bc: D2 = (Bb-Cc)/bc = −10.2 mmHg/sec.
  oblique angle parameter Altered amount D3 = (Dd-Cc)/cd: D3 = (Dd-Cc)/cd = 40.0 mmHg/sec.
  oblique angle parameter Altered amount D4 = (Dd-Ee)/de: D4 = (Dd-Ee)/de = −8.3 mmHg/sec.
  oblique angle parameter Altered amount D5 = D1 + D2: D5 = D1 + D2 = 11.4 mmHg/sec.
  oblique angle parameter Altered amount D6 = D3 + D4: D6 = D3 + D4 = 26.2 mmHg/sec.
Code A dog, 500 mg/kg oral, before vs 12 hours after taking the drug, all other parameters lower
  highest altered amount (oblique angle parameter): 40%
Code A dog, 500 mg/kg oral, before vs after taking the drug for 12 hours (FIG. 5 vs FIG. 6)
  difference between the blood pressure waveforms before and after taking the drug: no significant difference
[3]
  Oblique angle parameter D1 = (Bb-Aa)/ab: D1 = (Bb-Aa)/ab = 2250 mmHg/sec.
  Oblique angle parameter D2 = (Bb-Ee)/be: D2 = (Bb-Ee)/be = 1383 mmHg/sec.
  Oblique angle parameter D3 = (Ff-Ee)/ef: D3 = (Ff-Ee)/ef = 420 mmHg/sec.
  Oblique angle parameter D4 = (Ff-Gg)/fg: D4 = (Ff-Gg)/fg = 311 mmHg/sec.
  Oblique angle parameter D5 = D1 + D2: D5 = D1 + D2 = 3633 mmHg/sec.
  Oblique angle parameter D6 = D3 + D4: D6 = D3 + D4 = 731 mmHg/sec.
  Pressure parameter P1 = Aa: P1 = Aa = 16 mmHg
  Pressure parameter P2 = Bb: P2 = Bb = 106 mmHg
  Pressure parameter P3 = Ee: P3 = Ee = 23 mmHg
  Pressure parameter P4 = Ff: P4 = Ff = 44 mmHg
